Data taken from patent publication US11844794B2, “Pharmaceutical compositions” (ADEPTIO PHARMACEUTICALS LIMITED, priority 2017, dated 2023).

Legend:
[1] = moisture-sorption analysis; type: physicochemical; details: for moisture uptake: 25° C.
Procedure: Moisture-sorption analysis was carried out using a Hiden IGA Sorp moisture-sorption analyser. […] The sample was then subjected to an isothermal (at 25° C.) adsorption scan from 40 to 90% relative humidity in steps of 10%. The sample was allowed to equilibrate to an asymptotic weight at each point for a maximum of four hours. […] An adsorption scan was then performed from 0 to 40% relative humidity inn steps of 10%. The sample was dried for two hours at 60° C. and 0% relative humidity, and the resulting solid was analysed by XRPD.

[2] = thermal gravimetric analysis (TGA) / thermal stability
Procedure: Differential scanning calorimetry (DSC) was carried out on the sample “as is” using a Mettler DSC1 instrument. The sample was weighed I an aluminium pan, covered with a pierced lid, and then crimped and analysed from 30-300° C. at 10° C./minute.
Thermal gravimetric analysis was performed on the sample “as is” using a Mettler 851^e TGA instrument. The sample was weighed in an alumina crucible and analysed from 30-300° C. at 10° C./minute.

[3] = system: amphetamine-induced rats; assay: amphetamine-induced locomotor activity, open field test; type: in vivo, rat
Procedure: All animal experiments were carried out according to the National Institute of Health (NIH) guidelines for the care and use of laboratory animals, and approved by the National Animal Experiment Board, Finland. Male CD (Charles River Laboratories, Germany) at weight range of 200-250 g (165-200 g upon arrival) were used for the experiments. Animals were housed at a standard temperature (22±1° C.) and in a light-controlled environment (lights on from 7 am to 8 pm) with ad libitum access to food and water.
Locomotor activity of the rats was tested in open field arena. The open field test was performed during the rat light cycle and under a normal lighting evenly distributed to the test chambers. The paths of the rats were recorded by activity monitor (Med. Associates Inc.).
Dosing the vehicle, vehicle-amphetamine, (+)-α-DHTBZ or risperidone was done prior to LMA test. The rats were placed in the centre of the arena, and the path was recorded for 60 minutes.
Animals were grouped as follows: • Group 1: 10 rats treated with Vehicle (t=0 min) and Vehicle (t=30 min) • Group 2: 10 rats treated with Vehicle (t=0 min) and Amphetamine (t=30 min) • Group 3: 10 rats treated with (+)-α-DHTBZ 0.5 mg/kg (t=0 min) and Amphetamine (t=30 min) • Group 4: 10 rats treated with (+)-α-DHTBZ 1 mg/kg (t=0 min) and Amphetamine (t=30 min) • Group 5: 10 rats treated with (+)-α-DHTBZ 1.5 mg/kg (t=0 min) and Amphetamine (t=30 min) • Group 6: 10 rats treated with (+)-α-DHTBZ 2 mg/kg (t=0 min) and Amphetamine (t=30 min) • Group 7: 10 rats treated with risperidone 1 mg/kg (t=0 min) and Amphetamine (t=30 min)
(§1) Rats dosed with either vehicle, (+)-α-DHTBZ 0.5 mg/kg, (+)-α-DHTBZ 1 mg/kg, (+)-α-DHTBZ 1.5 mg/kg, (+)-α-DHTBZ 2 mg/kg or Risperidone 1 mg/kg were subjected to LMA testing first for 30 min and then for 60 minutes after vehicle or amphetamine challenge. Resulting locomotor activity was evaluated in 3 min bins and as a total over the testing period.
as §1, with “stereotypic” for “locomotor”, “period. […]” for “period.”

[4] = Study 1, all the tested doses (0.5, 1, 1.5 and 2 mg/kg)

SMILES	moisture uptake ([1]; 60% relative humidity) [weight %]	moisture uptake ([1]; 90% relative humidity) [weight %]	XRPD pattern after moisture sorption studies ([1]; dried at 60° C. and 0% relative humidity)	hygroscopicity ([1]; gravimetric moisture-sorption)	TGA weight loss ([2]; below 150° C.)	thermal stability ([2]; from DSC and TGA)	total stereotypic behaviour compared to vehicle-vehicle group ([3]; Study 1, 0.5 mg/kg plus amphetamine, male CD rats)	total stereotypic behaviour compared to vehicle-amphetamine group ([3]; Study 1, 0.5 mg/kg, male CD rats)	total stereotypic behaviour compared to vehicle-amphetamine group ([3]; Study 1, 1 mg/kg, male CD rats)	total stereotypic behaviour compared to vehicle-vehicle group ([3]; Study 1, 1.5 mg/kg plus amphetamine, male CD rats)	total stereotypic behaviour compared to vehicle-amphetamine group ([3]; Study 1, 1.5 mg/kg, male CD rats)	total stereotypic behaviour compared to vehicle-amphetamine group ([3]; Study 1, 2 mg/kg, male CD rats)	locomotor activity compared to vehicle-amphetamine group [3, 4]	stereotypic behaviour compared to vehicle-amphetamine group [3, 4]	effect suggested by both measured parameters ([3]; Study 1, locomotor activity and stereotypic behaviour)	total stereotypic behaviour compared to vehicle-amphetamine group ([3]; Study 2, 0.1 mg/kg, male CD rats)	total stereotypic behaviour compared to vehicle-amphetamine group ([3]; Study 2, 0.25 mg/kg, male CD rats)	total distance travelled compared to vehicle-amphetamine group ([3]; Study 2, 0.25 mg/kg, male CD rats, listed as (+)-α-DHTBZ)	stereotypic behaviour compared to vehicle-amphetamine group ([3]; Study 2, both the tested doses (0.1 and 0.25 mg/kg))
COc1cc2c(cc1OC)[C@H]1C[C@@H](O)[C@H](CC(C)C)CN1CC2.O=C(O)CCC(=O)O [(+)-α-dihydrotetrabenazine succinate]	0.6	1.3	No change	slightly hygroscopic	No weight loss	good thermal stability	–	–	–	–	–	–	–	–	–	–	–	–	–
COc1cc2c(cc1OC)[C@H]1C[C@@H](O)[C@H](CC(C)C)CN1CC2 [(+)-α-dihydrotetrabenazine, (2R,3R,11bR)-3-isobutyl-9,10-dimethoxy-1,3,4,6,7,11b-hexahydro-2H-pyrido[2,1,a]isoquinolin-2-01]	–	–	–	–	–	–	significantly different	significantly different	significantly different	significantly different	significantly different	significantly different	lower locomotor activity	reduced stereotypic behaviour	sedative effect similar to risperidone	significantly different	significantly different	lower locomotor activity	reduced stereotypic behaviour
